Measurements reported in paper PMC4607367, “Gedunin and Azadiradione: Human Pancreatic Alpha-Amylase Inhibiting Limonoids from Neem (Azadirachta indica) as Anti-Diabetic Agents” (PLoS ONE, 2015).
Entries after “also recorded” stand apart in the source; their conditions may differ.

What was measured:
[1] = target: T1, Porcine pancreatic α-amylase (PPA) (Sus scrofa, UniProt P00690); experiment: Porcine pancreatic α-amylase inhibition assay, chromogenic DNSA method (primary screening); format: biochemical; settings: for PPA inhibition (result in words): inhibitors 13.8–214.3 μM; for IC50: starch 1% w/v, pH 6.9, 37°C
T1 construct: purchased SRL, Mumbai, India
T1 sequence (P00690 16-511): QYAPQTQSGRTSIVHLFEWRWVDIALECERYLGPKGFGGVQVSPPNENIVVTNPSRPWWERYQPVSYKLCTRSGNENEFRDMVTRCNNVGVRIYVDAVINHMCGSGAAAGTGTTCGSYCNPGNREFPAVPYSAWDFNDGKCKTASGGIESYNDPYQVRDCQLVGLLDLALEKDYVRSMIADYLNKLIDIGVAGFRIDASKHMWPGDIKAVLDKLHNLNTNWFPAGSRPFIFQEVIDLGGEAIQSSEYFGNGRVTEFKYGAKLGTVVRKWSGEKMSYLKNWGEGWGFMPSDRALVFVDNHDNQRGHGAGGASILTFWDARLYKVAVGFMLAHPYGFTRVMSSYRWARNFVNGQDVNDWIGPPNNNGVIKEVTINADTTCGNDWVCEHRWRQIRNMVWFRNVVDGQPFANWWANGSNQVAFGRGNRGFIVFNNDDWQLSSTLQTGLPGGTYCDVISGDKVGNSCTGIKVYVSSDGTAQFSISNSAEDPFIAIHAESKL
Protocol: The inhibition assay was performed using the chromogenic DNSA method. PPA was used for preliminary screening of α-amylase inhibitors. […] Moreover a high degree gene sequence similarity (~ 90%) exists between human salivary α-amylase (HSA) and PPA as reported by (Buisson et al 1987). Brayer et al (1995) have reported 97% primary sequence similarity between human salivary and human pancreatic α-amylases and a 70% structural similarity between PPA and HPA [11]. Thus, a high degree of similarity between PPA and HPA allows us to use it as the enzyme for screening inhibitors.
In brief, the total assay mixture consisting of 0.02 M sodium phosphate buffer, pH6.9, (containing 6 mM NaCl), 0.2–0.25 U of PPA and inhibitors (13.8–214.3 μM) in DMSO was incubated at 37°C for 10 min. After pre-incubation, the substrate starch (1%, w/v) solution was added to the reaction mixture and further incubated for 15 min. The control PPA (0.21 U) without any inhibitor represented 100% enzyme activity. One unit of enzyme activity is defined as the amount of enzyme required to release one micromole of maltose from starch/maltopentaose per min under the assay conditions. The other quantifiers calculated were: % Relative enzyme activity = (enzyme activity of test/enzyme activity of control)*100. % inhibition = (100 − % relative enzyme activity).
The IC50 values were determined from plots of percent inhibition versus inhibitor concentration and calculated by logarithmic regression analysis. To eliminate the absorbance produced by the compound, appropriate controls were included. The known PPA/HPA inhibitor acarbose was used as a positive control at a concentration range of 10–50 μM.

[2] = target: T2, Human pancreatic α-amylase (HPA) (Homo sapiens, UniProt P04746); experiment: Human pancreatic α-amylase inhibition and stoichiometry (DNSA); format: biochemical
T2 construct: purchased Sigma Aldrich, USA
T2 sequence (P04746 16-511): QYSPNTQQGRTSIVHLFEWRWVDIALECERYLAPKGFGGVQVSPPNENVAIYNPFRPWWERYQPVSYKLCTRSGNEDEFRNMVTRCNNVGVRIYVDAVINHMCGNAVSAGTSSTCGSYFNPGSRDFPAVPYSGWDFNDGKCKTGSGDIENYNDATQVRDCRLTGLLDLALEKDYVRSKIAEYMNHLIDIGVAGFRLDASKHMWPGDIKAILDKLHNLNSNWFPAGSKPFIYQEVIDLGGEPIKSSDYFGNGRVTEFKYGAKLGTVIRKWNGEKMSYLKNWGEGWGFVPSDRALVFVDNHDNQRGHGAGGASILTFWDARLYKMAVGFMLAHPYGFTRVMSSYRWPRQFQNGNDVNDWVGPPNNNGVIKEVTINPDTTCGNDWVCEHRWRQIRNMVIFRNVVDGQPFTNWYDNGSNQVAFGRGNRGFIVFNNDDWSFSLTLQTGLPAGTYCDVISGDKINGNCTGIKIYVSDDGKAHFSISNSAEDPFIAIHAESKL
Text: The control HPA (0.25 U) without inhibitors represented 100% enzyme activity.

[3] = target: T3, secreted pancreatic α-amylase of AR42J cells (Rattus norvegicus, UniProt P00689); experiment: Bioactivity: inhibition of secreted pancreatic α-amylase in dexamethasone-induced AR42J cells, incl. starch load test (DNSA); format: cell-based; settings: for Amylase inhibition at the cytotoxic IC50 concentration: 24 h, at 11.1, 13.4 and 4.1 μM respectively
T3 construct: host or cells: AR42J rat pancreatic acinar cells, induced with 10 nM dexamethasone
T3 sequence (P00689 16-508): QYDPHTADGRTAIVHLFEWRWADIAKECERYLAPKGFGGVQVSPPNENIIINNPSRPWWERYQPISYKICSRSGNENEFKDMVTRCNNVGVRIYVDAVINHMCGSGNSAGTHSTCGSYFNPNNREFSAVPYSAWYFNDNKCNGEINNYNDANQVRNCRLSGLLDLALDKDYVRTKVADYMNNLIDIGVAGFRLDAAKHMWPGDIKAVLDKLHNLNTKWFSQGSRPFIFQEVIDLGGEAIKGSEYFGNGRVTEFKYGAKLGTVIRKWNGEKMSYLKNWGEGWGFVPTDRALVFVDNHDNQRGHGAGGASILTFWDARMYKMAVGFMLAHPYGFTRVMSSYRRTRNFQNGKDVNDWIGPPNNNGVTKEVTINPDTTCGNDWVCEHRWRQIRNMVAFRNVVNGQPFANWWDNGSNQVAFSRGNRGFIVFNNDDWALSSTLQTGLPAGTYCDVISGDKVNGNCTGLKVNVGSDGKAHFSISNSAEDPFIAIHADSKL
Text: Appropriate medium and DMSO controls were simultaneously set up.

[4] = target: T2, Human pancreatic α-amylase (HPA); experiment: Ligand binding to HPA by fluorescence quenching titration, thermodynamic parameters
Protocol: Ligand binding studies using fluorescence measurements of HPA were carried as described in our earlier report. […] Non-linear and linear regression analyses were used to analyze the data.
The thermodynamic parameters, association constants (K a), dissociation constant (K d) and Gibbs free energy (ΔG°) of binding for azadiradione and gedunin were determined at various temperatures 25°C to 60°C by fluorescence quenching studies.

[5] = Cytotoxicity in AR42J cell line (MTT); settings: rat, AR42J pancreatic acinar cells
Protocol: (§1) Cells were seeded at 2×10^4 cells well^-1 onto 96 wells culture dish. […] Appropriate medium and DMSO controls were simultaneously set up. […] At the end of 24 h incubation period the culture media was removed from the samples and fresh culture media (100 μl) containing 20 μl of MTT tetrazolium bromide (5 mg ml^-1) added and incubated for 3 h at 37°C. Metabolically active cells reduce MTT to insoluble purple formazan dye crystals, which were dissolved by addition of 300 μl DMSO solution at the end of the incubation period and quantitated at 550 nm [34].

[6] = system: AR42J rat pancreatic acinar cells; experiment: Cytotoxicity in AR42J cell line (MTT); settings: AR42J
Protocol: as §1

[7] = target: T2, Human pancreatic α-amylase (HPA); experiment: HPA inhibition kinetics (Michaelis-Menten, Lineweaver-Burk, secondary plots); format: biochemical
Protocol: The mode of inhibition of HPA by the lead inhibitors azadiradione and gedunin were determined using Michaelis-Menton and Lineweaver-Burk equations. Starch (1–5mg ml^-1) and maltopentaose (0.05–0.4mM) were incubated with inhibitors-HPA for 10 and 2.5 min, respectively and the residual enzyme activity determined by DNSA method for starch and Nelson-Somogyi’s method for maltopentaose.The inhibitor constants(K i) were determined on the basis of mode of inhibition.

[8] = target: HPA; design: method as in PMID 15736945; settings: ref [60], cited from earlier work
[9] = system: PPA; design: method as in PMID 22975503; settings: ref [25],[26], cited from earlier work; for IC50: value in brackets
[10] = linear van't Hoff plot, 298–333 K

C/C=C(\C)C(=O)O[C@H]1C[C@@H](OC(C)=O)[C@@]2(C(=O)OC)CO[C@H]3[C@@H](O)[C@@](C)([C@]45O[C@@]4(C)[C@@H]4C[C@H]5O[C@@H]5OC=C[C@@]54O)[C@H]4[C@]1(CO[C@]4(O)C(=O)OC)[C@@H]32 [azadirachtin A]
PPA inhibition (result in words) [1]: No inhibition; also recorded: no bioactivity

CC(=O)O[C@@H]1C[C@H]2C(C)(C)C(=O)C=C[C@]2(C)[C@H]2CC[C@@]3(C)[C@H](c4ccoc4)OC(=O)[C@H]4O[C@]43[C@@]21C [gedunin]
IC50 [1]: 72.2 µM | Stoichiometry of HPA inactivation ([2]; percentage inhibition versus molar ratio of HPA and inhibitor, HPA 14.85 μM): 0.68 | IC50 ([2]; starch substrate, sigmoidal fit): 68.4 µM | Secreted amylase inhibition in starch load test ([3]; AR42J, 0.5% (w/v) starch, up to two hours): 31.7% | Amylase inhibition at the cytotoxic IC50 concentration ([3]; AR42J): 69.2% | inhibition at 3.3 µM ([3]; AR-42J, AR42J, 3.3 μM): 53.4% | -ΔG° ([4]; 298 K): 21.16 k J mol^-1 | K a ([4]; 298 K): 5100 M⁻¹ | Kd ([4]; 298 K): 200 ± 9 µM | -ΔG° ([4]; 303 K): 20.57 k J mol^-1 | K a ([4]; 303 K): 3500 M⁻¹ | Kd ([4]; 303 K): 300 ± 3 µM | -ΔG° ([4]; 308 K): 16.4 k J mol^-1 | K a ([4]; 308 K): 600 M⁻¹ | Kd ([4]; 308 K): 1600 ± 1 µM | -ΔG° ([4]; 313 K): 12.4 k J mol^-1 | K a ([4]; 313 K): 120 M⁻¹ | Kd ([4]; 313 K): 8300 ± 50 µM | -ΔG° ([4]; 323K): 11.8 k J mol^-1 | K a ([4]; 323K): 80 M⁻¹ | Kd ([4]; 323K): 12200 ± 600 µM | -ΔG° ([4]; 333K): 7.4 k J mol^-1 | K a ([4]; 333K): 10 M⁻¹ | Kd ([4]; 333K): 67200 ± 800 µM | Maximal quenching of intrinsic HPA fluorescence ([4]; 350 nm, azadiradione 3.9–118 μM, gedunin 2.0–51.86 μM): 19% | Maximum ΔG° of binding ([4]; calculated from binding constants, maximal affinity at 298 K): -5.057 kcal/mol | Enthalpy (ΔHvH) [4, 10]: -33.44 kcal/mol | Entropy (-ΔS) [4, 10]: 397.84 J mol^-1K^-1 | IC50 at 24 h [5]: 13.4 µM | Cell death ([6]; 3.3 μM): 8.6% | Cell morphology versus controls ([6]; azadiradione 3.5 μM, gedunin 3.3 μM (Fig 3)): no morphological change | Ki ([7]; maltopentaose as substrate, secondary plots): 18.6 µM | Apparent K i ′ ([7]; starch as substrate, secondary plots): 37.4 µM | Mode of HPA inhibition ([7]; substrates starch and maltopentaose, Lineweaver-Burk): mixed

CC=C(C)C(=O)OC1CC(O)C23COC(C(=O)OC)C2C(C)(C24OC2(C)C2CC4OC4OC=CC42O)C(O)C2OCC1(C(=O)OC)C23 (centres unmarked) [azadirachtin B]
PPA inhibition (result in words) [1]: No inhibition; also recorded: no bioactivity

CC(=O)O[C@@H]1C[C@H]2C(C)(C)C(=O)C=C[C@]2(C)[C@H]2CC[C@@]3(C)[C@H](c4ccoc4)C(=O)[C@H]4O[C@]43[C@@]21C [epoxyazadiradione]
IC50 [1]: 100 µM | Amylase inhibition at the cytotoxic IC50 concentration ([3]; AR42J): 53.2% | inhibition at 1.7 µM ([3]; AR-42J, read-out: Pancreatic (secreted) α-amylase inhibition): 31.8% | IC50 at 24 h [5]: 4.1 µM | Cell death ([6]; 1.7 μM): 2.7%

C/C=C(/C)C(=O)O[C@H]1C[C@@H](OC(C)=O)[C@@]2(C)CO[C@H]3[C@H]4O[C@@H]5C[C@@H](c6ccoc6)C(C)=C5[C@@]4(C)[C@H](CC(=O)OC)[C@]1(C)[C@@H]32 [salannin]
PPA inhibition (result in words) [1]: No inhibition; also recorded: no bioactivity

COC(=O)C[C@H]1[C@]2(C)C3=C(C)[C@H](c4ccoc4)C[C@H]3O[C@@H]2[C@H](OC(C)=O)[C@@H]2[C@]1(C)C(=O)C=C[C@@]2(C)C(=O)OC [nimbin]
PPA inhibition (result in words) [1]: No inhibition; also recorded: no bioactivity

C[C@H]1O[C@H](O[C@H]2[C@H](O)[C@@H](O)[C@@H](O[C@H]3[C@H](O)[C@@H](O)C(O)O[C@@H]3CO)O[C@@H]2CO)[C@H](O)[C@@H](O)[C@@H]1N[C@H]1C=C(CO)[C@@H](O)[C@H](O)[C@H]1O (some centres unmarked) [Acarbose, acarbose]
Ki ([8]; 2-chloro-4-nitrophenyl-α-maltotrioside as substrate): 22 µM | Mode of HPA inhibition [8]: noncompetitive

CC(=O)O[C@@H]1C[C@H](OC(=O)C=C(C)C)[C@@]2(C)[C@H]3[C@@H](OC[C@]13C)[C@@H](O)[C@@]1(C)C3=CC[C@@H]([C@@H]4COC(=O)C4)[C@]3(C)CC[C@@H]12 [azadirachtolide]
IC50 with PPA [9]: 55.8 µg/mL | IC50 [9]: 94.1 µM

CC(=O)O[C@@H]1C[C@H]2C(C)(C)C(=O)C=C[C@]2(C)[C@H]2CC[C@]3(C)C(=CC[C@H]3c3ccoc3)[C@@]21C [azadirone]
PPA inhibition (result in words) [1]: No inhibition; also recorded: no activity was observed

CC(C)=CC(=O)O[C@H]1C[C@@H](O)[C@@]2(C)CO[C@H]3[C@@H](O)[C@@]4(C)C5=CC[C@@H](c6ccoc6)[C@]5(C)CC[C@@H]4[C@]1(C)[C@@H]32 [meliacinolin]
IC50 with PPA [9]: 46.74 µg/mL | IC50 [9]: 91.6 µM
